This note sets out measurements from patent US11717508B2, “Compounds, compositions, and methods for inhibiting bacterial growth” (priority 2016, dated 2023).

Series [1] concerns CDC1551(hspX′:GFP) reporter. The series can be described thus: microbe, parasite or virus in culture. It counts as cell-based, Mycobacterium tuberculosis. As to conditions: for EC50: Mycobacterium tuberculosis, read-out: EC50 of inhibition of CDC1551(hspX′:GFP) reporter (dosR-dependent GFP) fluorescence.
The subject of series [2] is Mtb. The series can be described thus: microbe, parasite or virus in culture. It counts as cell-based. The settings on record: Mycobacterium tuberculosis, read-out: growth inhibition EC50.
The test system of series [3] is DosR regulon genes (dosR, hspX and tgs1). The series can be described thus: NO and vitamin C sensitivity assays (RT-PCR). It counts as cell-based, Mycobacterium tuberculosis.
The target in series [4] is DosT (Mycobacterium tuberculosis, UniProt P9WGK1). The series can be described thus: DosT autophosphorylation assay. The series is classed as biochemical.
Chain of DosT (P9WGK1 whole entry): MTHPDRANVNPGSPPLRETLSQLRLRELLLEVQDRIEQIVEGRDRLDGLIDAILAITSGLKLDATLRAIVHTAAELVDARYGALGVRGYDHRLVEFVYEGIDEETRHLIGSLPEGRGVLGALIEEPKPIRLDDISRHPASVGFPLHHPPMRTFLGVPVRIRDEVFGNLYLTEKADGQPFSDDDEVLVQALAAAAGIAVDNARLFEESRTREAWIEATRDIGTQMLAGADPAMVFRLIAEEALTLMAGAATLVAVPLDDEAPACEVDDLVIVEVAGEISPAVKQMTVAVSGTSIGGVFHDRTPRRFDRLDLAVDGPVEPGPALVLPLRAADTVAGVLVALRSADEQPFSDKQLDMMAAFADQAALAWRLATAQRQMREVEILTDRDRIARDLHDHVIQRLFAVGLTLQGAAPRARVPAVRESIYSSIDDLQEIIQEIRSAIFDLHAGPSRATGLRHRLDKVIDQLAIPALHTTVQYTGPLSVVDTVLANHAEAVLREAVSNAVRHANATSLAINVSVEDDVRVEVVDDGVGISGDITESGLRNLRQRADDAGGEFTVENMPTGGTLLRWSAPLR
Series [5] deals with T1, DosS (Mycobacterium tuberculosis, UniProt P9WGK3). The series can be described thus: DosS autophosphorylation assay. The series is classed as biochemical.
T1 sequence (P9WGK3 whole entry): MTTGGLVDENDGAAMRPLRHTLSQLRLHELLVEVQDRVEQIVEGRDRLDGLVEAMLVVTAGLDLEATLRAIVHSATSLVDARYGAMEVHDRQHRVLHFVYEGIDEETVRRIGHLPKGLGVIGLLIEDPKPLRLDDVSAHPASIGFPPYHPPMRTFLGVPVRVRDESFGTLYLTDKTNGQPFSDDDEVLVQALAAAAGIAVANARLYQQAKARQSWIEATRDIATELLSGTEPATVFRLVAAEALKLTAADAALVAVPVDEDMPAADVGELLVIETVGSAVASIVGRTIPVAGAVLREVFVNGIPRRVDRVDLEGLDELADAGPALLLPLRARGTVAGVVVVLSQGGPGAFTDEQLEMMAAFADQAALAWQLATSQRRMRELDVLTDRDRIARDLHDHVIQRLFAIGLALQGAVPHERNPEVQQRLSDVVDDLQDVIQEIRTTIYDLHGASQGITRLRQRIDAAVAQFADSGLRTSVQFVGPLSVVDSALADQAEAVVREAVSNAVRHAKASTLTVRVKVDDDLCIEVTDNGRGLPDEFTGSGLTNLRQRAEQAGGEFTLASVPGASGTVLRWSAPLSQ
In series [6] the target is T1, DosS. The series is classed as biochemical.
The test system of series [7] is Mtb Erdman. The settings on record: ERDMAN, 360 h.
The target in series [8] is T1, DosS. The series can be described thus: LC-MS analysis of DosS reaction samples for heme-artemisinin adducts. The series is classed as biochemical. As to conditions: DosS treated with artemisinin vs DMSO.
Series [9] concerns DosR regulon genes (dosR, hspX and tgs1). The series can be described thus: RT-PCR of DosR regulon genes under hypoxia. The series is classed as cell-based, Mycobacterium tuberculosis. As to conditions: 6 days.

Entries after “also recorded” stand apart in the source; their conditions may differ. Read-outs that look alike come from different tables or passages of the source.

Take `C[C@@H]1CC(C)(C)C[C@]2(C1)NC(=O)NC2=O` (racemic) [HC102A, 7,7,9-trimethyl-1,3-diazaspiro[4.5]decane-2,4-dione]: the “activity of compound regenerated by organic synthesis” value in [1] is listed as “confirmed to have the activity of the commercially sourced compounds”. In addition, the EC50 in series [1] (6 days of treatment) was 12.4 µM; in [2] (6 days, optical density, unit given as M), over 80 µM. In addition, the “repression of tgs1 transcript following treatment with DETA-NONOate” value in [3] (80 μM pretreatment 24 h, 50 μM DETA-NONOate 2 h) was 3 fold. Besides, the “repression of tgs1 transcript in vitamin C treated cells” value in series [3] (80 μM pretreatment 24 h, 2 mM vitamin C 2 h) was 2 fold. In addition, the “inhibition of induction of DosR regulon (dosR, hspX, tgs1) by NO and vitamin C” value in [3] (pretreatment 24 h, induction 2 h) was “strongly inhibited the induction; also recorded: inhibited the induction of DosR regulon”. In series [4] (dose response, 1 hour), the “impact on DosT autophosphorylation” value is recorded as “limited impact”. Besides, the 50% inhibitory concentration (IC50) in series [5] (1 hour incubation, read-out: IC50 of inhibition of DosS autophosphorylation) is 1.9 µM. The “maximal inhibition of DosS autophosphorylation” value in series [5] (dose response) is about 60%. Moreover, the “effect on redox status of DosS heme” value in [6] (UV-visible spectra vs DMSO control) is “no impact on the redox status; also recorded: no effect in modulating redox status of DosS”.

Regarding `O=C(Nc1cccc(O)c1)c1cccc(NC(=O)c2cccs2)c1` [HC103A, N-[3-[(3 hydroxyphenyl)carbamoyl]phenyl]thiophene-2-carboxamide], the “activity of compound regenerated by organic synthesis” value in series [1] is “confirmed to have the activity of the commercially sourced compounds”. The EC50 in [1] ([…]) stood at 2.7 µM. Also, in series [2] ([…]), the EC50 was over 80 µM. Further, in series [7], the “reduction of Mtb viability when treated with 5 μM INH” value is about 50%. Also, in series [3], the “inhibition of induction of DosR regulon (dosR, hspX, tgs1) by NO and vitamin C” value is “strongly inhibited the induction; also recorded: inhibited the induction of DosR regulon”; the “repression of tgs1 transcript following treatment with DETA-NONOate” value is listed as 50 fold; the “repression of tgs1 transcript in vitamin C treated cells” value was determined as 3 fold. In series [4], the IC50 was about 5 µM. In series [5], the IC50 turned out to be 0.5 µM and the “maximal inhibition of DosS autophosphorylation” value is on record as about 90%. Besides, the “effect on redox status of DosS heme” value in series [6] was “no impact on the redox status; also recorded: no effect in modulating redox status of DosS”.

On to `C[C@@H]1CC[C@H]2[C@@H](C)C(=O)O[C@@H]3O[C@]4(C)CC[C@@H]1[C@]32OO4` [HC101A, artemisinin, reference compound], for which the “formation of heme-artemisinin adducts (LC-MS)” value in series [8] was “alkylates the sensor kinase heme to form heme-artemisinin adducts”. In addition, in [9], the “inhibition of dosRS (real-time PCR)” value is 37 fold, the “inhibition of hspX (real-time PCR)” value was found to be 51 fold and the “inhibition of tgs1 (real-time PCR)” value stood at 166 fold.

Broadly, the EC50 is the concentration at which the effect is half-maximal. A word on the IC50: it is the concentration that inhibits the measured activity by half.
